Assay type in all cases: cell-based, mouse
Test [1] relates to Hedgehog Signaling Pathway. Briefly: SHH-induced differentiation of C3H10T1/2 cells into osteoblastic cells, intracellular alkaline phosphatase activity. The settings on record: 10 nM SHH-N, 5 days, alkaline phosphatase activity (OD405), read-out: IC50 values of compounds that inhibit Hh pathway. The essentials: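 Mouse C3H10T1/2 cells were induced with 10 nM SHH-N alongside test compound (10 μM–10 nM) for 5 days at 37 °C. Cells were lysed in 0.2% Triton, and alkaline phosphatase activity was read at OD405 over 30 min at 37 °C with the background reading subtracted. IC50 came from a nonlinear fit against log concentration.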

In test [2] the test system is Hedgehog Signaling Pathway. Briefly: Gli-Luc reporter gene cell assay in C3H10T1/2/Gli-Luc cells stimulated with Shh. The conditions noted are these: 30 nM Shh, luciferase activity (RLU), read-out: IC50 values of compounds that inhibit Hh pathway. The text has this: The Application of Reporter Gene Cell Assay for the Determination of the Inhibitory Activity of N-(3-(1H-benzo[d]imidazol-2-yl)-4-chlorophenyl)-2-methyl-4-((2S,6R)-2,6-dimethylmorpholino) benzamide and Analogs on Hedgehog Signaling Pathway
The binding of Sonic hedgehog (Shh) to its receptor Patched 1 initiates numerous intracellular signal transmission, and leads to the nuclear translocation of Gli and the elevated transcription of Gli target genes. When C3H10T1/2 cells are stably transfected with the Gli-Luc plasmids containing the luciferase gene under the control of Gli response element and stimulated with Shh, the expression of luciferase is elevated. Luciferase activity is indicative of the hedgehog signaling pathway activity. Therefore, the inhibitory activity of compounds on hedgehog signaling pathway can be measured using the luciferase activity when the transfected cells are stimulated with Shh.
The day before experiment, C3H10T1/2/Gli-Luc cells in log phase of growth were seeded into 96 well plate at a density of 20000 cells per well. The cells were maintained in DMEM (Hyclone) supplemented with 10% FBS (Hyclone) and incubated at 37° C. with 5% CO2 overnight. The compounds to be examined were diluted into 7 different concentrations by series of dilutions (⅓ and 1/10), and the eighth point of concentration is the DMSO control. Those solutions were diluted 100-fold in the fresh growth medium. The cells were taken out of the incubator and the medium of cultured cells were removed. Then, each well was added in an orderly manner with 80 μL of fresh growth medium, 20 μL of medium pre-dilution of positive compound and compounds to be tested, as well as 100 μL of growth medium containing 30 nM of Shh. The cells are returned to the incubator, and incubated for 24 hours.
Measurement of luciferase activity: After taking the 96 well plate out of the incubator, the supernatants were discarded and the cells were washed twice with PBS. Thereafter, each well was dispensed with 20 μL of lysis buffer (Promega E1531), and the plate was shaken for 30 min at room temperature. Following transferring 5 μL of cell lysate into 384 well plate (Greiner 781074), adding 25 μL of luciferase reaction buffer (Promega E1501) into each well and mixing the plate, the relative light unit (RLU) was immediately captured by VarioSkan Flash.
The data were analyzed with Prism 5 software (GraphPad). The relative light unit (RLU) was plotted against the log concentration of testing compound, and the obtained plot was fitted with non-linear curve fitting equation to calculate IC50 values. The curve fitting equation is Y (RLU)=Bottom+(Top−Bottom)/(1+10^((X−Log IC50))). X is the logarithm of concentration. Y is the measure of relative light unit (RLU).
The calculated IC50 value is a measurement of the inhibitory activity of compound to Hh pathway.

Test [3] relates to Hedgehog Signaling Pathway. Briefly: SAG-induced differentiation of C3H10T1/2 cells into osteoblastic cells, intracellular alkaline phosphatase activity. The settings on record: Mus musculus, C3H 10T1/2, 120 h, 1 μM SAG, 5 days, alkaline phosphatase activity (OD405), read-out: IC50 values of compounds that inhibit Hh pathway. The essentials: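 Mouse C3H10T1/2 cells were induced with SAG and exposed to compound (10 μM to 1 nM) for 5 days at 37 °C. Cells were lysed in 0.2% Triton, and alkaline phosphatase activity was read as OD405 over 30 min at 37 °C in pH 9.8 substrate buffer. IC50 came from a non-linear fit of background-subtracted OD405 against log concentration.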

The mark [4] stands for this setting: Mus musculus, C3H 10T1/2, 120 h.

Counter-ions that a name gives are not always drawn.

As usually defined, the IC50 is the concentration needed to halve the response being measured.

Turning to `Cc1cc(-c2ccc(C#N)cc2)ccc1C(=O)Nc1ccc(Cl)c(-c2nc3ccccc3[nH]2)c1` [Example 6, N-(3-(1H-benzo[d]imidazol-2-yl)-4-chlorophenyl)-3-methyl-4′-cyanobiphenyl-4-carboxamide], the IC50 amounted to 2.6 nM in test [1] (setting [4]); 3.3 nM in test [2] (Mus musculus, C3H 10T1/2, 24 h); 19 nM in test [3].
In the same order, the values of `Cc1cc(-c2ccc([N+](=O)[O-])cc2)ccc1C(=O)Nc1ccc(Cl)c(-c2nc3ccccc3[nH]2)c1` [Example 7, N-(3-(1H-benzo[d]imidazol-2-yl)-4-chlorophenyl)-3-methyl-4′-nitrobiphenyl-4-carboxamide] are 3.5 nM, 4.6 nM and 25 nM.
In the same order, the values of `Cc1cc(-c2ccc(Cl)cc2)ccc1C(=O)Nc1ccc(Cl)c(-c2nc3ccccc3[nH]2)c1` [Example 8, N-(3-(1H-benzo[d]imidazol-2-yl)-4-chlorophenyl)-3-methyl-4′-chlorobiphenyl-4-carboxamide] are 3.6 nM, 4.6 nM and 86 nM.
As for `Cc1cc(C(=O)Nc2ccc(Cl)c(-c3nc4ccccc4[nH]3)c2)ccc1-c1ccc(C(F)(F)F)cc1` [Example 14, N-(3-(1H-benzo[d]imidazol-2-yl)-4-chlorophenyl)-2-methyl-4′-(trifluoromethyl)biphenyl-4-carboxamide], the IC50 came out at 5.5 nM in test [1] (setting [4]); 9.5 nM in test [2] (Mus musculus, C3H 10T1/2, 24 h); 80 nM in test [3].
The corresponding values for `O=C(Nc1ccc(Cl)c(-c2nc3ccccc3[nH]2)c1)c1ccc(-c2ccc(C(F)(F)F)cc2)cc1Cl` [Example 18, N-(3-(1H-benzo[d]imidazol-2-yl)-4-chlorophenyl)-3-chloro-4′-(trifluoromethyl)biphenyl-4-carboxamide] are 3.7 nM, 8.2 nM and 60 nM.
As for `Cc1cc(-c2ccc(C(F)(F)F)cc2)ccc1C(=O)Nc1ccc(Cl)c(-c2nc3ccccc3[nH]2)c1` [Example 21, N-(3-(1H-benzo[d]imidazol-2-yl)-4-chlorophenyl)-3-methyl-4′-(trifluoromethyl)biphenyl-4-carboxamide], the IC50 in test [1] (setting [4]) came out at 2.3 nM; in test [2] (Mus musculus, C3H 10T1/2, 24 h), 5.8 nM; in test [3], 30 nM.
The corresponding values for `O=C(Nc1ccc(Cl)c(-c2nc3ccccc3[nH]2)c1)c1ccc(-c2ccc(C(F)(F)F)cc2)cc1` [Example 22, N-(3-(1H-benzo[d]imidazol-2-yl)-4-chlorophenyl)-4′-(trifluoromethyl)biphenyl-4-carboxamide] are 15 nM, 16 nM and 124 nM.
In the same order, the values of `Nc1cc(-c2ccc(C(F)(F)F)cc2)ccc1C(=O)Nc1ccc(Cl)c(-c2nc3ccccc3[nH]2)c1` [Example 25, N-(3-(1H-benzo[d]imidazol-2-yl)-4-chlorophenyl)-3-amino-4′-(trifluoromethyl)biphenyl-4-carboxamide] are 5.5 nM, 4 nM and 191 nM.
The corresponding values for `Cc1cc(N2C[C@@H](C)O[C@@H](C)C2)ccc1C(=O)Nc1ccc(Cl)c(-c2nc3ccccc3[nH]2)c1` [Example 32, N-(3-(1H-benzo[d]imidazol-2-yl)-4-chlorophenyl)-2-methyl-4-((2S,6R)-2,6-dimethylmorpholino)benzamide] are 7.9 nM, 7.2 nM and 53 nM.
`C[C@@H]1CN(c2ccc(C(=O)Nc3ccc(Cl)c(-c4nc5ccc(F)cc5[nH]4)c3)c(Cl)c2)C[C@H](C)N1C` [Example 131, N-(3-(6-fluoro-1H-benzo[d]imidazol-2-yl)-4-chlorophenyl)-2-chloro-4-((3S,5R)-3,4,5-trimethylpiperazin-1-yl)benzamide Dihydrochloride]: the IC50 in test [1] (Dihydrochloride) is 7.2 nM; in test [2] (24 hours, Dihydrochloride), 1.2 nM.

The values are drawn from patent publication US10676468B2, “N-(3-heteroarylaryl)-4-arylarylcarboxamides and analogs as hedgehog pathway inhibitors and use thereof” (IMPACT Therapeutics, Inc., priority 2012, dated 2020).
